From patent publication US12410163B2, “Compounds as GLP-IR agonists” (Terns Pharmaceuticals, Inc., priority 2022, dated 2025)

Test system: human hepatocytes
Experiment: Metabolic stability in hepatocytes
Type: in vitro ADME
Settings: 1 μM, 1×10^6 cells/mL, 0-240 min
How it was run: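 Cryopreserved human hepatocytes at 1×10^6 cells/mL in DMEM were exposed to 1 μM compound (0.1% DMSO) for 0–240 min at 37 °C, 5% CO2. Parent loss quantified by LC-MS/MS; t1/2 = 0.693/k and CLint = k/cell density from semi-log % remaining versus time.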

N#Cc1ccc(COc2cccc(N3CCN(Cc4nc5ccc(C(=O)O)cc5n4Cc4cncs4)[C@H]4C[C@H]43)n2)c(F)c1 (single isomer, unassigned) [Compound 2, 2-((5-(6-((4-Cyano-2-fluorobenzyl)oxy)pyridin-2-yl)-2,5-diazabicyclo[4.1.0]heptan-2-yl)methyl)-1-(thiazol-5-ylmethyl)-1H-benzo[d]imidazole-6-carboxylic Acid]
hHep t1/2: > 8 h
